pIC50: −log10 of the molar value.
Experiments:
JMJD2C = JMJD2C (Homo sapiens (Human), UniProt Q9H3R0); test: In vitro enzyme inhibition assay for JMJD2C activity (TR-FRET); format: biochemical
Method in brief: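 Baculovirus JMJD2C (AA 2-372), 0.3 nM, with 300 nM biotin-H3K9me3 peptide and 2 μM α-ketoglutarate in HEPES pH 7.3 containing Fe(II) and ascorbate, 30 min at room temperature, 11-point dilutions. H3K9me2 product by TR-FRET (Eu-antibody/streptavidin-APC, 665/615 ratio); IC50 fitted.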

[1] = tested on: KYSE-150 esophageal carcinoma cell line; test: In vitro cell-based assay: cellular proliferation via BrdU incorporation (ELISA); set-up: species or system human; details: Homo sapiens, KYSE-150, 168 hours compound incubation
Method in brief: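 KYSE-150 cells (JMJD2C-amplified; SMAD4 and TP53 mutant), 2,000/well, were treated after overnight attachment with an 11-point series (100 μM to 2 nM) for 168 h. Proliferation was read by BrdU ELISA (2 h labelling, anti-BrdU-peroxidase, TMB, 450 nm) and IC50 fitted.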

JMJD3 = JMJD3 (Homo sapiens, UniProt O15054); test: In vitro enzyme inhibition assay for JMJD3 activity (TR-FRET); format: biochemical
Experimental: This assay determines the ability of a test compound to inhibit JMJD3 demethylase activity.
The enzymatic assay of JMJD3 activity is based upon Time Resolved-Fluorescence Resonance Energy Transfer (TR-FRET) detection. […] Reaction product was determined quantitatively by TR-FRET after the addition of detection reagent Phycolink Streptavidin-allophycocyanin (Prozyme) and Europium-anti-di-methylated histone H3 lysine 27 (H3K27me2) antibody (PerkinElmer) in the presence of 5 mM EDTA in LANCE detection buffer (PerkinElmer) at a final concentration of 50 nM and 1 nM, respectively.
The reaction mixture was incubated at room temperature for 30 minutes, and terminated by the addition of 6 μL of 5 mM EDTA in LANCE detection buffer containing 100 nM Phycolink Streptavidin-allophycocyanin and 2 nM Europium-anti-H3K27me2 antibody.

Chain of JMJD2C (Q9H3R0 2-372): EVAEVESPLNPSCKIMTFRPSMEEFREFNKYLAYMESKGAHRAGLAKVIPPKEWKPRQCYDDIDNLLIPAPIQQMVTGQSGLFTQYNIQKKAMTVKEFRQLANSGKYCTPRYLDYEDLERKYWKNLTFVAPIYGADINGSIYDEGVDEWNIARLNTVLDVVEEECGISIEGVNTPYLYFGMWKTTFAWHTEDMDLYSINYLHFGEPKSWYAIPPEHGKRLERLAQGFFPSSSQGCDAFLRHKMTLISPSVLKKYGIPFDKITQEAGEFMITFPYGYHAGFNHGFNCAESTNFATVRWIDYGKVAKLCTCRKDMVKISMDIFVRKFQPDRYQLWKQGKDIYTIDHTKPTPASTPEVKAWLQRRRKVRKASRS

| pIC50 (JMJD2C) | pIC50 [1] | pIC50 (JMJD3) | Compound |
| --- | --- | --- | --- |
| 6.00 to 7.00 | ≥ 7.00 | 5.00 to 6.00 | CN(C)c1ccc(N(C)c2ccc3c(c2)CCC[C@H]3CNc2cnccc2C(=O)O)cc1 [Example 160, 3-({[(1R)-6-{[4-(dimethylamino)phenyl](methyl)amino}-1,2,3,4-tetrahydronaphthalen-1-yl]methyl}amino)pyridine-4-carboxylic acid] |
| 6.00 to 7.00 | ≥ 7.00 | 5.00 to 6.00 | COCc1ccc(N(C)c2ccc3c(c2)CCC[C@H]3CNc2cnccc2C(=O)O)cc1 [Example 164, 3-({[(1R)-6-{[4-(methoxymethyl)phenyl](methyl)amino}-1,2,3,4-tetrahydronaphthalen-1-yl]methyl}amino)pyridine-4-carboxylic acid] |
| 6.00 to 7.00 | 5.00 to 6.00 | 5.00 to 6.00 | CN(c1ccc(O)cc1)c1ccc2c(c1)CCC[C@H]2CNc1cnccc1C(=O)O [Example 165, 3-({[(1R)-6-[(4-hydroxyphenyl)(methyl)amino]-1,2,3,4-tetrahydronaphthalen-1-yl]methyl}amino)pyridine-4-carboxylic acid] |
| 6.00 to 7.00 | < 5.00 | 5.00 to 6.00 | Cc1noc(C)c1N(C)c1ccc2c(c1)CCC[C@H]2CNc1cnccc1C(=O)O [Example 166, 3-({[(1R)-6-[(dimethyl-1,2-oxazol-4-yl)(methyl)amino]-1,2,3,4-tetrahydronaphthalen-1-yl]methyl}amino)pyridine-4-carboxylic acid] |
| 6.00 to 7.00 | ≥ 7.00 | 5.00 to 6.00 | CN(c1ccc(N2CCOCC2)cc1)c1ccc2c(c1)CCC[C@H]2CNc1cnccc1C(=O)O [Example 170, 3-({[(1R)-6-{methyl[4-(morpholin-4-yl)phenyl]amino}-1,2,3,4-tetrahydronaphthalen-1-yl]methyl}amino)pyridine-4-carboxylic acid] |
| 6.00 to 7.00 | ≥ 7.00 | 5.00 to 6.00 | CN(c1ccc(OC(F)F)cc1)c1ccc2c(c1)CCC[C@H]2CNc1cnccc1C(=O)O [Example 184, 3-({[(1R)-6-{[4-(difluoromethoxy)phenyl](methyl)amino}-1,2,3,4-tetrahydronaphthalen-1-yl]methyl}amino)pyridine-4-carboxylic acid] |
| 6.00 to 7.00 | ≥ 7.00 | 5.00 to 6.00 | CCOc1ccc(N(C)c2ccc3c(c2)CCC[C@H]3CNc2cnccc2C(=O)O)cc1 [Example 185, 3-({[(1R)-6-[(4-ethoxyphenyl)(methyl)amino]-1,2,3,4-tetrahydronaphthalen-1-yl]methyl}amino)pyridine-4-carboxylic acid] |
| 6.00 to 7.00 | ≥ 7.00 | 5.00 to 6.00 | CC(C)c1ccc(N(C)c2ccc3c(c2)OCC[C@H]3CNc2cnccc2C(=O)O)cc1 [Example 187, 3-({[(4R)-7-{methyl[4-(propan-2-yl)phenyl]amino}-3,4-dihydro-2H-1-benzopyran-4-yl]methyl}amino)pyridine-4-carboxylic acid] |
| 6.00 to 7.00 | ≥ 7.00 | 5.00 to 6.00 | CN(c1ccc(OC(F)F)cc1)c1ccc2c(c1)OCC[C@H]2CNc1cnccc1C(=O)O [Example 190, 3-({[(4R)-7-{[4-(difluoromethoxy)phenyl](methyl)amino}-3,4-dihydro-2H-1-benzopyran-4-yl]methyl}amino)pyridine-4-carboxylic acid] |
| 6.00 to 7.00 | ≥ 7.00 | 5.00 to 6.00 | CN(c1ccc(CC(F)(F)F)cc1)c1ccc2c(c1)OCC[C@H]2CNc1cnccc1C(=O)O [Example 192, 3-({[(4R)-7-{methyl[4-(2,2,2-trifluoroethyl)phenyl]amino}-3,4-dihydro-2H-1-benzopyran-4-yl]methyl}amino)pyridine-4-carboxylic acid] |
| 6.00 to 7.00 | 6.00 to 7.00 | 5.00 to 6.00 | CN(c1ccc(-n2ccnc2)cc1)c1ccc2c(c1)CCC[C@H]2CNc1cnccc1C(=O)O [Example 193, 3-({[(1R)-6-{[4-(1H-imidazol-1-yl)phenyl](methyl)amino}-1,2,3,4-tetrahydronaphthalen-1-yl]methyl}amino)pyridine-4-carboxylic acid] |
| 6.00 to 7.00 | 5.00 to 6.00 | 5.00 to 6.00 | CN(c1ccc(-n2ccnc2)cc1)c1ccc2c(c1)OCC[C@H]2CNc1cnccc1C(=O)O [Example 194, 3-({[(4R)-7-{[4-(1H-imidazol-1-yl)phenyl](methyl)amino}-3,4-dihydro-2H-1-benzopyran-4-yl]methyl}amino)pyridine-4-carboxylic acid] |
| 6.00 to 7.00 | ≥ 7.00 | 5.00 to 6.00 | CN(c1ccc(C2CCOCC2)cc1)c1ccc2c(c1)OCC[C@H]2CNc1cnccc1C(=O)O [Example 202, 3-({[(4R)-7-{methyl[4-(oxan-4-yl)phenyl]amino}-3,4-dihydro-2H-1-benzopyran-4-yl]methyl}amino)pyridine-4-carboxylic acid] |
| 6.00 to 7.00 | ≥ 7.00 | 5.00 to 6.00 | CN(c1ccc(OCC2CC2)cc1)c1ccc2c(c1)CCC[C@H]2CNc1cnccc1C(=O)O [Example 209, 3-({[(1R)-6-{[4-(cyclopropylmethoxy)phenyl](methyl)amino}-1,2,3,4-tetrahydronaphthalen-1-yl]methyl}amino)pyridine-4-carboxylic acid] |

| Compound | pIC50 (JMJD2C) | pIC50 [1] | pIC50 (JMJD3) |
| --- | --- | --- | --- |
| CN(c1ccc(N2CCC2)cc1)c1ccc2c(c1)OCC[C@H]2CNc1cnccc1C(=O)O [Example 183, 3-({[(4R)-7-{[4-(azetidin-1-yl)phenyl](methyl)amino}-3,4-dihydro-2H-1-benzopyran-4-yl]methyl}amino)pyridine-4-carboxylic acid] | 6.00 to 7.00 | ≥ 7.00 | 5.00 to 6.00 |
| CN(c1ccccc1)c1ccc2c(c1)CCC[C@H]2CNc1nnccc1C(=O)O [Example 191, 3-({[(1R)-6-[methyl(phenyl)amino]-1,2,3,4-tetrahydronaphthalen-1-yl]methyl}amino)pyridazine-4-carboxylic acid] | 6.00 to 7.00 | ≥ 7.00 | 5.00 to 6.00 |
